Consider eleven compounds from ChEMBL document CHEMBL1201862, “PubChem BioAssay data set” (2004).

Among the test systems are LOX IMVI; UACC-257; OVCAR-5; SK-MEL-28; LXFL 529; HL-60; MOLT-4; SF-268; CCRF-CEM; CAKI-1; SK-OV-3; HOP-62; OVCAR-8; SR; SN12C; SF-539; HCT-15; HCC 2998.
Holding throughout (test): DTP human tumour cell line panel, 48 h

Molecules are shown by their SMILES.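 Test compounds were applied to cells in 96-well plates for 48 hours at 5 doses. GI50 marks 50% less growth.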 Calls of active or inactive are those of the source. No stated cut-off is given here; in the data, active = GI50 up to about 1.1 µM and inactive = higher.

As for `O=C(Cc1nc2ccc(C(=O)c3ccccc3)cc2nc1O)C(=O)Nc1ccc(C(F)(F)F)cc1[N+](=O)[O-]`, the GI50 (usually the concentration that inhibits growth by half) is 39.4 µM (inactive) in the test on LOX IMVI; > 100 µM (inactive) in the test with UACC-257; > 100 µM (inactive) in the test with OVCAR-5; 82.6 µM (inactive) with SK-MEL-28; 35.8 µM (inactive) in the test with LXFL 529; 31.6 µM (inactive) in the test on HL-60. The GI50 was 22.8 µM (inactive) in the test with MOLT-4; 65 µM (inactive) with SF-268; 27.3 µM (inactive) in the test with CCRF-CEM; 30.8 µM (inactive) in the test on CAKI-1; > 100 µM (inactive) in the test on SK-OV-3; 91.8 µM (inactive) in the test on HOP-62. The GI50 in the test with OVCAR-8 was 69 µM (inactive); in the test with SR it was 26.9 µM (inactive); in the test with SN12C, > 100 µM (inactive); in the test on SF-539, 53.3 µM (inactive); in the test with HCT-15, greater than 100 µM; with HCC 2998 it was > 100 µM (inactive).

For `O=C1CCCCCCCCCCC1CN1CCCCC1` (centres undefined), the GI50 is 70.6 µM (inactive) with LOX IMVI; 70.6 µM (inactive) in the test with UACC-257; 89.7 µM (inactive) in the test with OVCAR-5; 41.6 µM (inactive) in the test on SK-MEL-28; > 100 µM (inactive) in the test with LXFL 529; 87.1 µM (inactive) in the test with HL-60. The GI50 in the test on MOLT-4 is 57 µM (inactive); in the test on SF-268, > 100 µM (inactive); with CCRF-CEM, 66.8 µM (inactive); in the test with HOP-62, > 100 µM (inactive); in the test on OVCAR-8, > 100 µM (inactive); in the test on SR it was > 100 µM (inactive). Also, the results for the GI50 with SN12C, in the test with HCT-15 and with HCC 2998 were > 100 µM (inactive), 59.8 µM and > 100 µM (inactive), respectively.

On to `COC1(OC)CC2C(=O)N(Cc3ccccc3)C1C(S(=O)(=O)c1ccccc1)C2C(C)S(=O)(=O)c1ccccc1` (centres undefined), for which the GI50 in the test with LOX IMVI, in the test with UACC-257, with OVCAR-5, in the test with SK-MEL-28, with LXFL 529 and in the test on HL-60 was > 100 µM (inactive) throughout. Moreover, the GI50 with MOLT-4, in the test with SF-268, in the test on CCRF-CEM, with CAKI-1, in the test on SK-OV-3 and with HOP-62 was > 100 µM (inactive) each time. Further, the GI50 in the test on OVCAR-8 is > 100 µM (inactive); in the test on SR, > 100 µM (inactive); in the test on SN12C, > 100 µM (inactive); with SF-539, > 100 µM (inactive); in the test with HCT-15 it was greater than 100 µM; with HCC 2998, > 100 µM (inactive).

`CN(c1ccccc1)c1nc(=[N+]2CCCC2)ss1.[O-][Cl+3]([O-])([O-])[O-]`: the GI50 in the test with UACC-257, in the test with SK-MEL-28, in the test with LXFL 529, with HL-60, in the test on MOLT-4 and in the test on SF-268 was > 100 µM (inactive) in each case. Further, the GI50 was > 100 µM (inactive) in the test with CCRF-CEM; > 100 µM (inactive) with CAKI-1; > 100 µM (inactive) in the test on SK-OV-3; > 100 µM (inactive) with OVCAR-8; 17.1 µM (inactive) with SR; > 100 µM (inactive) with SN12C. Also, the GI50 in the test on HCT-15 is 87.7 µM; in the test with HCC 2998, > 100 µM (inactive).

As for `C/C(=N/Nc1ccc([N+](=O)[O-])cc1[N+](=O)[O-])C(CC(C(=O)NCc1ccccc1)/C(C)=N\Nc1ccc([N+](=O)[O-])cc1[N+](=O)[O-])C(=O)NCc1ccccc1` (centres undefined), the GI50 is 5.21 µM (inactive) with UACC-257; 19.4 µM (inactive) in the test with OVCAR-5; 7.8 µM (inactive) with SK-MEL-28; 10.9 µM (inactive) with LXFL 529; < 0.01 µM (active) in the test on HL-60; 4.42 µM (inactive) in the test on SF-268. For the same compound, the GI50 in the test on CAKI-1 was 7.03 µM (inactive); with SK-OV-3, 15.6 µM (inactive); in the test on HOP-62 it was 3.88 µM (inactive); in the test on OVCAR-8, 2.14 µM (inactive); with SR it was 9.1 µM (inactive); in the test on SN12C, 4.05 µM (inactive). Moreover, the GI50 is 4.06 µM (inactive) in the test with SF-539, 10.3 µM with HCT-15 and 13.2 µM (inactive) in the test on HCC 2998.

Take `Clc1ccc(Cl)c2[s+]snc12`: the GI50 was 31 µM (inactive) in the test with LOX IMVI; > 93.3 µM (inactive) in the test with UACC-257; > 100 µM (inactive) with OVCAR-5; > 100 µM (inactive) with SK-MEL-28; 34.2 µM (inactive) in the test on LXFL 529; 50.7 µM (inactive) in the test with HL-60. Moreover, the GI50 in the test on MOLT-4 was > 79.6 µM (inactive); in the test with SF-268, 46.8 µM (inactive); in the test with CCRF-CEM, 50.8 µM (inactive); in the test with CAKI-1, > 100 µM (inactive); in the test with SK-OV-3, > 100 µM (inactive); with HOP-62, > 85.3 µM (inactive). Moreover, the GI50 in the test with OVCAR-8 was 40.3 µM (inactive); with SR, > 100 µM (inactive); in the test with SN12C, > 79.3 µM (inactive); in the test with SF-539, 46 µM (inactive); with HCT-15, 29.4 µM; in the test on HCC 2998 it was > 100 µM (inactive).

For the compound `CC(=O)c1c2c(cc3c1CC1(C3)Cc3cc4c(c(C(=O)O)c3C1)CCC4)CCC2` (centres undefined), the GI50 is 32.4 µM (inactive) with LOX IMVI; 45 µM (inactive) with UACC-257; > 100 µM (inactive) in the test with OVCAR-5; 44.5 µM (inactive) in the test with SK-MEL-28; 40.7 µM (inactive) with LXFL 529; 16.7 µM (inactive) with HL-60. In addition, the GI50 is 25.9 µM (inactive) in the test with MOLT-4; 36.8 µM (inactive) with SF-268; 27.7 µM (inactive) with CCRF-CEM; 36.9 µM (inactive) with CAKI-1; 36.5 µM (inactive) with HOP-62; 41 µM (inactive) in the test on OVCAR-8. The GI50 in the test on SR is 25.2 µM (inactive); with SN12C, 31.4 µM (inactive); in the test with SF-539, 19.2 µM (inactive); in the test on HCC 2998, 37.8 µM (inactive).

For the compound `CN(C)C(=N)NC(=S)N(C)C`, the GI50 with LOX IMVI, in the test with UACC-257, in the test with OVCAR-5, in the test on SK-MEL-28, with LXFL 529 and with HL-60 was > 100 µM (inactive) throughout. In addition, the GI50 in the test on MOLT-4, in the test on SF-268, in the test on CCRF-CEM, with CAKI-1, in the test with SK-OV-3 and with HOP-62 was > 100 µM (inactive) throughout. Further, the GI50 was > 100 µM (inactive) in the test on OVCAR-8; > 100 µM (inactive) in the test on SR; > 100 µM (inactive) in the test on SN12C; > 100 µM (inactive) in the test with SF-539; greater than 100 µM in the test on HCT-15; > 100 µM (inactive) with HCC 2998.

Consider `Cc1cc(C)nc(NS(=O)(=O)c2ccc(NC(=O)COC(=O)c3cccc4c(=O)c5ccccc5[nH]c34)cc2)n1`, for which the GI50 in the test with LOX IMVI is 20.5 µM (inactive); with UACC-257, 27.1 µM (inactive); with OVCAR-5, 20.7 µM (inactive); in the test on SK-MEL-28 it was 31.7 µM (inactive); in the test with LXFL 529, 39.8 µM (inactive); in the test with HL-60 it was 26.9 µM (inactive). Besides, the GI50 was 31.3 µM (inactive) in the test on MOLT-4; 37.7 µM (inactive) in the test with SF-268; 34.3 µM (inactive) in the test with CCRF-CEM; > 100 µM (inactive) in the test with CAKI-1; 38.8 µM (inactive) in the test on SK-OV-3; 23.7 µM (inactive) with HOP-62. In addition, the GI50 with OVCAR-8 was 32.1 µM (inactive); in the test with SR, 28.6 µM (inactive); in the test on SN12C, 40.4 µM (inactive); in the test on SF-539, 19.5 µM (inactive); in the test with HCT-15 it was greater than 100 µM; with HCC 2998 it was 21.1 µM (inactive).

Consider `N#COc1ccc(Oc2ccc(OC#N)cc2)cc1`, for which the GI50 in the test with LOX IMVI was 19.3 µM (inactive); with UACC-257, > 100 µM (inactive); with OVCAR-5, > 100 µM (inactive); in the test with SK-MEL-28, > 100 µM (inactive); in the test with LXFL 529 it was > 100 µM (inactive); with HL-60, 46.3 µM (inactive). Moreover, the GI50 with MOLT-4 was 72.4 µM (inactive); with SF-268, > 100 µM (inactive); in the test with CCRF-CEM, 22.5 µM (inactive); in the test on CAKI-1 it was > 100 µM (inactive); in the test with SK-OV-3 it was > 100 µM (inactive); in the test with HOP-62, > 100 µM (inactive). The GI50 in the test on OVCAR-8 was > 100 µM (inactive); with SR, 24.1 µM (inactive); in the test on SN12C, 55.5 µM (inactive); in the test on SF-539, 43.5 µM (inactive); with HCT-15, 42.8 µM; with HCC 2998, > 100 µM (inactive).

Consider `O=S1(=O)C[C@@H](O)[C@H](O)CS1`, for which the GI50 in the test on LOX IMVI, in the test with UACC-257, in the test with OVCAR-5, in the test with SK-MEL-28, with LXFL 529 and in the test with HL-60 was > 100 µM (inactive) each time. In addition, the GI50 in the test on MOLT-4, in the test with SF-268, in the test with CAKI-1, in the test on SK-OV-3, in the test with HOP-62 and in the test with OVCAR-8 was > 100 µM (inactive) each time. The GI50 in the test on SR, with SN12C, in the test on SF-539 and in the test on HCC 2998 was > 100 µM (inactive) each time.
